The compounds below were run against Histone deacetylase (Eimeria tenella) (assay: Inhibitory activity against histone deacetylase (HDAC) from partially purified extracts of Eimeria tenella protozoal cells).

| Compound | IC50 |
| --- | --- |
| CC[C@H](C)[C@@H]1NC(=O)[C@H](Cc2cn(OC)c3ccccc23)NC(=O)[C@H](CCCCCC(=O)O)NC(=O)[C@H]2CCCCN2CC1=O | 0.03 µM |
| CC[C@H](C)[C@@H]1NC(=O)[C@H](Cc2cn(OC)c3ccccc23)NC(=O)[C@H](CCCCCC(=O)C(C)O)NC(=O)[C@H]2CCCCN2CC1=O (some centres not stated) | 0.004 µM |
| CCC(=O)CCCCC[C@@H]1NC(=O)[C@H]2CCCCN2CC(=O)[C@H]([C@@H](C)CC)NC(=S)[C@H](Cc2cn(OC)c3ccccc23)NC1=O | 0.21 µM |
| CC[C@H](C)[C@@H]1NC(=O)[C@H](Cc2cn(OC)c3ccccc23)NC(=O)[C@H](CCCCCC(=O)C2CO2)NC(=O)[C@H]2CCCCN2CC1=O (some centres not stated) | 0.001 µM |
| CCCCCCCC[C@@H]1NC(=O)[C@H]2CCCCN2CC(=O)[C@H]([C@@H](C)CC)NC(=O)[C@H](Cc2cn(OC)c3ccccc23)NC1=O | 0.3 µM |
| CC[C@H](C)[C@@H]1NC(=O)[C@H](Cc2cn(OC)c3ccccc23)NC(=O)[C@H](CCCCCP(=O)(OC)OC)NC(=O)[C@H]2CCCCN2CC1=O | 0.85 µM |
| CC[C@H](C)[C@@H]1NC(=O)[C@H](Cc2cn(OC)c3ccccc23)NC(=O)[C@H](CCCCCC(=O)OC)NC(=O)[C@H]2CCCCN2CC1=O | 0.0008 µM |

Reference: BindingDB's records for doi:10.1016/s0960-894x(00)00604-1 (Merck Research Laboratories, 2001)
